Like-named read-outs stand apart in the source and are kept apart here.
What was measured:
[1] = tested on: human breast cancer MDA-MB-231 cells [人乳腺癌MDA-MB-231细胞]; experiment: CCK-8 in vitro tumour cell inhibition assay, MDA-MB-231 (Example 11, Tables 2-4); format: cell-based
[2] = tested on: skin cancer A431 cells, colon cancer HCT116 cells, gastric cancer MKN45 cells, ovarian cancer SKOV-3 cells [皮肤癌A431细胞、结肠癌HCT116细胞、胃癌MKN45细胞、卵巢癌SKOV-3细胞]; experiment: CCK-8 in vitro tumour cell inhibition assay (Example 10, Table 1); format: cell-based; details: A431, HCT116, MKN45, SKOV-3 cells; statement on Table 1 (IC50)

| IC50 ([1]; 48h) [nM] | IC50 ([1]; 72h) [nM] | SMILES | inhibition at 5 µM ([1]; 48h, read-out: inhibition rate) [%] | inhibition at 5 µM ([1]; 72h, read-out: inhibition rate) [%] | inhibition at 50 µM ([1]; 24h, read-out: inhibition rate) [%] | inhibition at 50 µM ([1]; 48h, read-out: inhibition rate) [%] | inhibition at 50 µM ([1]; 72h, read-out: inhibition rate) [%] | further results |
| --- | --- | --- | --- | --- | --- | --- | --- | --- |
| 2960 | 1460 | Cn1nc(N2C(=O)COC23C=CC(=O)C=C3)nc1-c1ccccc1 [LHDYX-3, 4-(1-甲基-5-苯基-1H-1,2,4-三氮唑-3-基)-1-氧-4-氮螺[4.5]癸-6,9-二烯-3,8-二酮] | – | – | – | – | – | – |
| – | – | Cn1nc(-c2ccccc2)nc1N1C(=O)COC12C=CC(=O)C=C2 [LHDYX-2, 4-(1-甲基-3-苯基-1H-1,2,4-三氮唑-5-基)-1-氧-4-氮螺[4.5]癸-6,9-二烯-3,8-二酮] | 94.7 | 96.2 | 100 | 93.5 | 96.4 | inhibition at 0.05 µM ([1]; 24h, read-out: inhibition rate): 19.1%; inhibition at 0.05 µM ([1]; 48h, read-out: inhibition rate): 19%; inhibition at 0.05 µM ([1]; 72h, read-out: inhibition rate): 39.4%; inhibition at 0.5 µM ([1]; 24h, read-out: inhibition rate): 17.1%; inhibition at 0.5 µM ([1]; 48h, read-out: inhibition rate): 76.4%; inhibition at 0.5 µM ([1]; 72h, read-out: inhibition rate): 95.3%; inhibition at 5 µM ([1]; 24h, read-out: inhibition rate): 39.9% |
| – | – | COC1=CC(=O)C=CC12OCC(=O)N2c1nc(-c2ccccc2)nn1-c1ccccc1 (stereo not shown) [LHDYX-4, 4-(1,3-二苯基-1H-1,2,4-三氮唑-5-基)-6-甲氧基-1-氧-4-氮螺[4.5]癸-6,9-二烯-3,8-二酮] | 4.3 | 17.2 | 42 | 98.4 | 100 | inhibition at 5 µM ([1]; 24h, read-out: inhibition rate (class symbol)): < 0% |
| 2880 | 340 | O=C1C=CC2(C=C1)OCC(=O)N2c1nc(-c2ccccc2)nn1-c1ccccc1 [LHDYX-1, 4-(1,3-二苯基-1H-1,2,4-三氮唑-5-基)-1-氧-4-氮螺[4.5]癸-6,9-二烯-3,8-二酮] | – | – | – | – | – | inhibition of cancer cells compared with doxorubicin [2]: 对癌细胞的抑制作用高于目前临床中已广泛使用抗肿瘤药物阿霉素(Doxorubicin); inhibitory activity on cancer cells [2]: 不同程度的抑制活性; IC50 ([1]; 24h): 26000 nM |
